Experimental data as given in PubChem BioAssay AID1250 (SRMLSC, 2008).
Calls of active or inactive are those of the source.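 The calls were made as follows: active = inhibition of at least 30% at one or more tested concentrations; inactive = inhibition below 30% at every dose.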

Assay: antiviral protection against BTV-induced cell death – arbovirus, BSR cells, confirmation (AID 1250)
Conditions: BSR cells, Bluetongue virus CPE, ATP luminescence, 72 h; at 20 µM (top of the series)

| SMILES | CPE inhibition |
| --- | --- |
| CCc1ccc(C2=CC(c3cc(Br)ccc3F)n3ncnc3N2)cc1 (centres undefined) | -5.9% (inactive) |
| O=C(O)CCCC(=O)Nc1nc2n(n1)C(c1ccc(F)cc1)CC(c1ccc(Cl)cc1)N2 (centres undefined) | 2.43% (inactive) |
| Cc1cccc(-n2c(=O)c3c4c(sc3n3c(=S)[nH]nc23)CCC4)c1 | 7.97% (inactive) |
| COc1cc2ccccc2cc1C(=O)NC(=S)Nc1cc(C(=O)O)ccc1C | 17.8% (inactive) |
| N#CC(C#N)=Cc1cc2ccccc2nc1N1CCCCC1 | 12.6% (inactive) |
| Cn1cc(CN2CCN(c3ccccc3)CC2)c2ccccc21 | 12% (inactive) |
| COc1ccc(CCCc2nnc(SCc3nc4ccccc4c(=O)[nH]3)n2C)cc1 | 3.86% (inactive) |
| O=C(Nc1ccccc1C(=O)O)c1cccc(NC(=O)c2ccc(Br)o2)c1 | 7.57% (inactive) |
| CN1CCN(C(=S)NC(=O)c2ccc(Cl)cc2)CC1 | 29.2% (inactive) |
| O=C(Nc1nc(-c2ccccc2)ns1)c1cccs1 | 15.2% (inactive) |
| N#CCSc1nc(N)c(C#N)c(C2CCCCC2)c1C#N | 6.59% (inactive) |
| O=C1CC(c2cccc([N+](=O)[O-])c2)c2ccc3ccccc3c2N1 (centres undefined) | 8.81% (inactive) |
| CCOC(=O)N1CCC(Nc2c(Nc3cccc(CC)c3)c(=O)c2=O)CC1 | 9.52% (inactive) |
| O=c1c(-c2ccccc2)c[nH]n1-c1cccc([N+](=O)[O-])c1 | 14.9% (inactive) |
| O=C(CCl)N=c1sccn1Cc1cccc2ccccc12 | 7.67% (inactive) |
| O=c1/c(=C/c2ccc(O)cc2)sc2n1CCCN=2 | 1.41% (inactive) |
| Fc1ccc2nc(Nc3nc4c(F)cccc4s3)sc2c1 | 20.9% (inactive) |
| O=C(O)c1cc(N/N=C/c2ccc(OCc3ccccc3)cc2)ccc1Cl | 19.7% (inactive) |
| Cc1cccc2c1-c1sc(C(=O)Nc3nccs3)cc1CO2 | 27% (inactive) |
| O=C1NC(=Nc2ccc(Cl)cc2)SC1Cc1cccc(Cl)c1Cl (centres undefined) | 12.4% (inactive) |
| Cc1noc(C)c1C(=O)OCC(=O)Nc1cc(Cl)ccc1Oc1ccccc1 | 22.6% (inactive) |
| O=[N+]([O-])c1ccc(NCCNCCOc2nonc2-c2ccccc2)c([N+](=O)[O-])c1 | 6.24% (inactive) |
| N#Cc1c(NC(=O)CSc2nnc(-c3ccccc3)o2)sc2c1CCCC2 | -0.12% (inactive) |

| SMILES | CPE inhibition |
| --- | --- |
| CN(c1ccccc1)c1ccc(/C=C(\CCC(=O)O)c2nc3ccccc3s2)cc1[N+](=O)[O-] | 21.4% (inactive) |
| O=Cc1cn(-c2ccccc2)nc1-c1cc2cc(O)ccc2oc1=O | 9.88% (inactive) |
| Cc1ccccc1S(=O)(=O)Nc1ncnc2scc(-c3ccccc3)c12 | 20.4% (inactive) |
| O=C1CC(c2ccc(Br)cc2)NC(c2ccc(Br)cc2)C1c1ccccc1 (centres undefined) | 7.99% (inactive) |
| COC(=O)c1ccc(NC(=O)c2ccccc2NS(C)(=O)=O)cc1 | 22.4% (inactive) |
| CCn1nc(C)c(NC(=O)Nc2cccc(Cl)c2Cl)c1C | 2.62% (inactive) |
| COc1ccc(CN(C(=O)CSc2nnc(-c3ccc(F)cc3)o2)c2ccc(F)cc2)cc1 | 21.3% (inactive) |
| O=C(Nc1ccn(Cc2ccccc2)n1)c1n[nH]c([N+](=O)[O-])c1Cl | 14% (inactive) |
| Cc1ccc(C(=O)N/C(=C\c2cccs2)C(=O)NCc2cccnc2)cc1 | 10.2% (inactive) |
| Cc1nnc(SCC(=O)N2CCc3ccccc32)s1 | 3.29% (inactive) |
| CSc1nc(-c2ccc(Cl)cc2Cl)[nH]c(=O)c1C#N | 24.3% (inactive) |
| Oc1ccc(-c2n[nH]c(=S)n2-c2ccc3c(c2)OCCO3)c(O)c1 | 18.1% (inactive) |
| COc1cc2c(C(=O)O)c(C)n(CC(C)C)c2c2ccccc12 | 28.1% (inactive) |
| CCSc1nnc(NC(=O)CSc2nnc(Cc3cccn3C)n2-c2ccc(F)cc2)s1 | 13.9% (inactive) |
| C=CCSc1nnc(NC(=O)CSc2nc3ccccc3o2)s1 | 21.8% (inactive) |
| C=CCn1c(SCC(=O)Nc2nc3ccccc3s2)nnc1-c1ccccc1O | 21.1% (inactive) |
| O=C(Nn1c(SCc2cccc([N+](=O)[O-])c2)nc2ccccc2c1=O)c1ccccc1 | 29.8% (inactive) |
| CC(C)(C)c1ccc(N/N=C(\C#N)S(=O)(=O)C(C)(C)C)cc1 | 23.9% (inactive) |
| COC(=O)c1ccccc1NC(=O)C1CCN(C(=O)c2cc(OC)c(OC)c(OC)c2)CC1 | 1.96% (inactive) |
| FC(F)(F)c1cccc(Oc2ccc3c(C(F)(F)F)cc(C(F)(F)F)nc3n2)c1 | 3.1% (inactive) |
| CC(C)c1cc(C(F)(F)F)n2nc(C(=O)Nc3ccc4c(c3)OCO4)cc2n1 | 9.64% (inactive) |
| O=C(Nc1c(-c2ccccc2)nc2ccccn12)c1cccs1 | 20.6% (inactive) |
| Cc1ccc2nc(NC(=O)C3CCN(S(=O)(=O)c4cnc[nH]4)CC3)sc2c1 | 14% (inactive) |

| SMILES | CPE inhibition |
| --- | --- |
| Cc1cc(F)ccc1S(=O)(=O)Nc1ncnc2scc(-c3ccc(F)cc3)c12 | 21.7% (inactive) |
| CCc1ccc(S(=O)(=O)c2ccc(-n3nc(C)cc3N)cc2)cc1 | 6.14% (inactive) |
| CCCCCc1nnc(NC(=O)C2COc3ccccc3O2)s1 (centres undefined) | 17.9% (inactive) |
| CC(C)CCN(C(=S)NC(=O)C1CCCCC1)c1c(N)n(Cc2ccccc2)c(=O)[nH]c1=O | 7% (inactive) |
| N#Cc1c(N2C(=O)Nc3ccccc3N2O)sc2c1CCCCCC2 | 19.9% (inactive) |
| Nc1[nH]nc2nc(NCc3ccccc3)c3c(c12)CCN(Cc1ccccc1)C3 | 10.8% (inactive) |
| COc1ccc(NS(=O)(=O)c2cc(NC(=O)/C=C/c3cccs3)ccc2N2CCOCC2)cc1 | 18.4% (inactive) |
| O=[N+]([O-])c1cc(/C=N\Nc2nc(-c3ccccc3)cs2)ccc1O | 26.1% (inactive) |
| O=c1[nH]c(=O)n(C(c2ccccc2)c2ccccc2)cc1Br | 18.7% (inactive) |
| COc1ccc(C2=CC(c3ccc(C)cc3)n3nnnc3N2)cc1 (centres undefined) | 6.94% (inactive) |
| O=c1oc(-c2ccccc2)nc2sc3c(c12)CCCC3 | 24.9% (inactive) |
| CN(C)C(=O)COC(=O)c1ccccc1Nc1ccc(SC(F)F)cc1 | 23% (inactive) |
| COc1cc(-c2nnc(-c3ccc(N4CCOCC4)cc3)o2)cc(OC)c1OC | 8.33% (inactive) |
| O=C(NCCN1C(=O)S/C(=C/c2cccnc2)C1=O)C1CC(=O)N(Cc2ccccc2)C1 (centres undefined) | 3.69% (inactive) |
| CC(C)CC1=NN2C(=N)/C(=C\c3coc4ccccc4c3=O)C(=O)N=C2S1 | 13.5% (inactive) |
| C/C(=N\Nc1nc2ccccc2[nH]1)c1ccc2c(c1)OCO2 | 8.76% (inactive) |
| COc1ccccc1N1CCN(Cc2cc(C)c(C)cc2O)CC1 | 25.1% (inactive) |
| Nc1nc2ccccc2n1/N=C/c1ccc(-c2ccccc2)o1 | 12.9% (inactive) |
| N=C1/C(=C/c2cccs2)C(=O)N=C2SN=C(SCc3ccccc3)N12 | 29.3% (inactive) |
| Cc1ccccc1OCCSCc1nc2ccccc2[nH]1 | 24.9% (inactive) |
| Cc1ccc(-n2cccc2/C=C2/C(=N)N3C(=NC2=O)SN=C3S(C)(=O)=O)cc1 | 12.1% (inactive) |
| CSc1nc(C)c(CCO)c(=O)[nH]1 | 3.71% (inactive) |
| O=c1oc(-c2cccs2)nc2sc3c(c12)CCCC3 | 21.2% (inactive) |
